What was measured:
ovarian cancer A2780 = assay: Cell biological activity detection (CyQuant, 72 hours), A2780; format: cell-based, human; conditions: A2780 cells, incubation for 72 hours
Summary of the method: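 IC50 derived from CyQuant Direct nuclear staining (488 nm excitation) after 72 h compound exposure at 37 °C, 5% CO2. Compounds tested in 9 concentrations from 10 μM, 1:4 steps, 0.2% DMSO, on A2780 or HCC70 cells plated overnight at 2000/well in RPMI 1640 + 10% FBS.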

[1] = target: T1, CDK12 (aa686-1082)/cyclinK complex (Homo sapiens, UniProt Q9NYV4); assay: In-vitro enzymatic inhibitory activity testing, CDK12 inhibition assay (Caliper EZ Reader II); format: biochemical; conditions: CDK12/cyclinK 50 nM, 180 min at 27° C.; read-out: CDK12 IC50
T1 construct: A CDK12 (aa686-1082)/cyclinK complex (50 nM)
T1 sequence (Q9NYV4 686-1082, species assumed): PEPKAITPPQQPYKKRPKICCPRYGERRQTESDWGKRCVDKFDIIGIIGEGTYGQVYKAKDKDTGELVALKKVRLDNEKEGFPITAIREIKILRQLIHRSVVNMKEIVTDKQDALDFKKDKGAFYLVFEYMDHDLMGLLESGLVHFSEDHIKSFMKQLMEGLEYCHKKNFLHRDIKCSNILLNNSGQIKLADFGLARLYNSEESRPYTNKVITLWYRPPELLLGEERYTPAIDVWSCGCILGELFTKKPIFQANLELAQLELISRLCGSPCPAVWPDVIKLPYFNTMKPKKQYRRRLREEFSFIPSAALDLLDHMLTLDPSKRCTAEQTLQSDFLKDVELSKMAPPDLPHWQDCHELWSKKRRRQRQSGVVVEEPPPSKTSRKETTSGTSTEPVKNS
T1 sequence (O75909 whole entry partner, species assumed, the tested form may be a part): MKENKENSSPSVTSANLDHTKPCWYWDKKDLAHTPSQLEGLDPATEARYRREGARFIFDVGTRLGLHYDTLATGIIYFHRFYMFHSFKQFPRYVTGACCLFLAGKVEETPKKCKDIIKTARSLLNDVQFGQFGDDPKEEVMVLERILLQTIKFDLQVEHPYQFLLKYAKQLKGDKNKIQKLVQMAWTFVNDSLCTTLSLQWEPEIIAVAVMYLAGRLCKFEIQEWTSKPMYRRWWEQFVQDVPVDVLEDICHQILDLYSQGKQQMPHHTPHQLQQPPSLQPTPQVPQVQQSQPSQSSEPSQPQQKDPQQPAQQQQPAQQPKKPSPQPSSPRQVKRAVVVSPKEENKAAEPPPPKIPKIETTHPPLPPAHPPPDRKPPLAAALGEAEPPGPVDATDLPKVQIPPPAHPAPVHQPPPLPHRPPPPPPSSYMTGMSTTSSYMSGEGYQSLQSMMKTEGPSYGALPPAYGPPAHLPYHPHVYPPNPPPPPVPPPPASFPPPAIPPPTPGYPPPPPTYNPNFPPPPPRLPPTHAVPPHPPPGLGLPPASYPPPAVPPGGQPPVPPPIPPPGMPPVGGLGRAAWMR
Summary of the method: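 CDK12 (aa686-1082)/cyclinK complex at 50 nM was pre-incubated with compound for 10 min, then reacted 180 min at 27° C with ATP and 2 μM 5-FAM-CDK9tide in pH 6.5 MES buffer with 10 mM MgCl2. Reactions were EDTA-quenched and product resolved electrophoretically; IC50 from nonlinear curve fit.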

[2] = target: CDK7/cyclinH/MAT1 complex (Homo sapiens, UniProt P50613); assay: In-vitro enzymatic inhibitory activity testing, CDK7 inhibition assay (Caliper EZ Reader II); format: biochemical; conditions: CDK7/cyclinH/MAT1 6 nM, 180 min at 27° C.
Sequence of CDK7/cyclinH/MAT1 complex (P50613 whole entry, species assumed): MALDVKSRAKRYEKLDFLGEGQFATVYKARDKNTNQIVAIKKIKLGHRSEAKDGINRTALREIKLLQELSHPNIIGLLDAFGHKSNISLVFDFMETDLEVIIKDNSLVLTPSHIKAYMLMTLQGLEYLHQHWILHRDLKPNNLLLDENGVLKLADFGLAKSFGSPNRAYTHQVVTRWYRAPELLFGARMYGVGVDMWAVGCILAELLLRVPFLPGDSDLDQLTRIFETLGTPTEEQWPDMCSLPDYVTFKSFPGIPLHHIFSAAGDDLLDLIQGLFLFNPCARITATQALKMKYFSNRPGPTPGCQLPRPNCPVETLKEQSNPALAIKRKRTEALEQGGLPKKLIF
Sequence of CDK7/cyclinH/MAT1 complex (P51946 whole entry partner, species assumed): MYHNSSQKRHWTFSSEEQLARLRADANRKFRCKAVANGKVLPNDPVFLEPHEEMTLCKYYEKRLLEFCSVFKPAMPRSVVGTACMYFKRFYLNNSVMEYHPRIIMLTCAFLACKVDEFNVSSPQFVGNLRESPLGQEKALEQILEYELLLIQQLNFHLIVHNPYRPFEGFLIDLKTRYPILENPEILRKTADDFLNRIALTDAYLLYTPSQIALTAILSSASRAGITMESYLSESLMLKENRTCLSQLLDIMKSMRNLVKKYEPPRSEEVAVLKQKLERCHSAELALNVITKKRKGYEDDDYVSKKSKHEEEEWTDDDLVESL
Sequence of CDK7/cyclinH/MAT1 complex (P51948 whole entry partner, species assumed): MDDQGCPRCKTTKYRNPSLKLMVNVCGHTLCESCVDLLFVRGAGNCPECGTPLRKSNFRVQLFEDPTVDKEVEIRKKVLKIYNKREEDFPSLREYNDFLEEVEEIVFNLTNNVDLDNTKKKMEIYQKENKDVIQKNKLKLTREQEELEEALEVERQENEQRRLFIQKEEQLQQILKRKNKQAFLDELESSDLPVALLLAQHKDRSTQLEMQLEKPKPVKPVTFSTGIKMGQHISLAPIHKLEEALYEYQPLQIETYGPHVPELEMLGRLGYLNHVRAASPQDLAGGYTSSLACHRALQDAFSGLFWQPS
Summary of the method: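 Enzyme preincubated 10 min with compound, then peptide substrate plus ATP added in 80 mM MES pH 6.5, 10 mM MgCl2 buffer; 180 min at 27 °C, stopped with EDTA.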

CDK9/cyclinT1 complex = CDK9/cyclinT1 complex (Homo sapiens, UniProt P50750); assay: In-vitro enzymatic inhibitory activity testing, CDK9 inhibition assay (Caliper EZ Reader II); format: biochemical; conditions: CDK9/cyclinT1 8 nM, 180 min at 27° C.
Sequence of CDK9/cyclinT1 complex (P50750 whole entry, species assumed): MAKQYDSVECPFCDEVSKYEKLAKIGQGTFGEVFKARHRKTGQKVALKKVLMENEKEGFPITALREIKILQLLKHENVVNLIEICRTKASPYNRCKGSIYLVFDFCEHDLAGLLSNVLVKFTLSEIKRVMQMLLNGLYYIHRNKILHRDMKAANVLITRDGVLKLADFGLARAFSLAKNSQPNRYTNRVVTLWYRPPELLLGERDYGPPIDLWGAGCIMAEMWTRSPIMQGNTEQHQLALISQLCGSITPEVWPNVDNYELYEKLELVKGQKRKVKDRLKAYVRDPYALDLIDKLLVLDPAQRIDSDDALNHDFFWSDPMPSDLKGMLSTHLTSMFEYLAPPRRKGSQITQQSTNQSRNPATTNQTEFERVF
Sequence of CDK9/cyclinT1 complex (O60563 whole entry partner, species assumed): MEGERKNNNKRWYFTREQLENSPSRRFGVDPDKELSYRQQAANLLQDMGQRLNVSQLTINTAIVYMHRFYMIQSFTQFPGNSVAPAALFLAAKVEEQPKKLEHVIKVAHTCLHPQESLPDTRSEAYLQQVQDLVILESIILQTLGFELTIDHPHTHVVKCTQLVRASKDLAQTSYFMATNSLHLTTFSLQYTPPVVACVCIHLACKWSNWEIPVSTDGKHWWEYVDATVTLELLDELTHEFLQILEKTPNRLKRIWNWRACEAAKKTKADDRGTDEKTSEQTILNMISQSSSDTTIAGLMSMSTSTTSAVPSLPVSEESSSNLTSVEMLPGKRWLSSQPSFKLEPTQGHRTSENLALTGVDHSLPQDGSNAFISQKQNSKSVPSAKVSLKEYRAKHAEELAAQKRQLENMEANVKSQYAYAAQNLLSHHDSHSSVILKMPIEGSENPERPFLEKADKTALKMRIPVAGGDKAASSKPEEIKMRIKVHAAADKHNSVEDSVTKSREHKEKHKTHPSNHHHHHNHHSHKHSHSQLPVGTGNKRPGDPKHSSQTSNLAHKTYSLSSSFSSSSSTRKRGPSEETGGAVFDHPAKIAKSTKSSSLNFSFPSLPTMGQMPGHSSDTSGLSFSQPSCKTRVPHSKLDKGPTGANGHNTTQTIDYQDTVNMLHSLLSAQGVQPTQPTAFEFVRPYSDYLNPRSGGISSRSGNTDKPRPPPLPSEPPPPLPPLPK
Summary of the method: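 Phosphorylated and unphosphorylated fluorescent peptide were resolved by mobility-shift electrophoresis, with IC50 taken from a nonlinear regression of dose-response data. Reactions ran 180 min at 27 °C in MES buffer pH 6.5 with MgCl2, after 10 min enzyme–compound preincubation, using 8 nM CDK9/cyclinT1 and 5-FAM-CDK9tide.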

IC50 (ovarian cancer A2780; Homo sapiens, A2780, 72 h)	IC50 [1]	IC50 [2]	IC50 (CDK9/cyclinT1 complex)	IC50 (ovarian cancer A2780)	Structure (SMILES)
< 20 nM	5000 to 50000 nM	< 20 nM	> 50000 nM	–	CC1(C)COCC(Nc2ncc(C(F)(F)F)c(-c3c[nH]c4c(P(C)(C)=O)cccc34)n2)CN1 (single isomer, unassigned) [Compound 91, (3-(2-((3,3-dimethyl-1,4-oxazepan-6-yl)amino)-5-(trifluoromethyl)pyrimidin-4-yl)-1H-indole-7-yl)dimethylphosphine oxide]
< 20 nM	> 50000 nM	< 20 nM	> 50000 nM	–	CP(C)(=O)c1cccc2c(-c3nc(NC4(CO)CCOC4)ncc3C(F)(F)F)c[nH]c12 (single isomer, unassigned) [Compound 118]
–	> 50000 nM	20 to 200 nM	> 50000 nM	20 to 200 nM	CP(C)(=O)c1cccc2c(-c3nc(NC4(CO)CCOC4)ncc3C(F)(F)F)c[nH]c12 (single isomer, unassigned) [Compound 119]
20 to 200 nM	> 50000 nM	< 20 nM	> 50000 nM	–	CC(O)[C@H](C)Nc1ncc(C(F)(F)F)c(-c2c[nH]c3c(P(C)(C)=O)cccc23)n1 (single isomer, unassigned) [Compound 129]
–	> 50000 nM	< 20 nM	> 50000 nM	20 to 200 nM	CC(O)[C@H](C)Nc1ncc(C(F)(F)F)c(-c2c[nH]c3c(P(C)(C)=O)cccc23)n1 (single isomer, unassigned) [Compound 130]
20 to 200 nM	> 50000 nM	< 20 nM	> 50000 nM	–	CP(C)(=O)c1cccc2c(-c3nc(NCC4CC4CO)ncc3C(F)(F)F)c[nH]c12 (single isomer, unassigned) [Compound 143]
–	> 50000 nM	20 to 200 nM	> 50000 nM	20 to 200 nM	CP(C)(=O)c1cccc2c(-c3nc(NCC4CC4CO)ncc3C(F)(F)F)c[nH]c12 (single isomer, unassigned) [Compound 144]
20 to 200 nM	> 50000 nM	< 20 nM	> 50000 nM	–	CC(CO)CNc1ncc(C(F)(F)F)c(-c2c[nH]c3c(P(C)(C)=O)cccc23)n1 (single isomer, unassigned) [Compound 149]
–	> 50000 nM	< 20 nM	> 50000 nM	20 to 200 nM	CC(CO)CNc1ncc(C(F)(F)F)c(-c2c[nH]c3c(P(C)(C)=O)cccc23)n1 (single isomer, unassigned) [Compound 150]
< 20 nM	> 50000 nM	< 20 nM	> 50000 nM	–	C[C@@H](CO)Nc1ncc(C(F)(F)F)c(-c2c[nH]c3c(P(C)(C)=O)c(C#N)ccc23)n1 [Compound 79, (S)-7-(dimethylphosphoryl)-3-(2-((1-hydroxy-propan-2-yl)amino)-5-(trifluoromethyl)pyrimidin-4-yl)-1H-indole-6-carbonitrile]
< 20 nM	5000 to 50000 nM	< 20 nM	> 50000 nM	–	C[C@@H](CO)Nc1ncc(C(F)(F)F)c(-c2c[nH]c3c(P(C)(C)=O)cccc23)n1 [Compound 82, (S)-(3-(2-((1-hydroxypropyl-2-yl)amino)-5-(trifluoromethyl)pyrimidin-4-yl)-1H-indole-7-yl)dimethylphosphine oxide]
< 20 nM	5000 to 50000 nM	< 20 nM	5000 to 50000 nM	–	CP(C)(=O)c1cccc2c(-c3nc(N[C@H]4CC[C@H](O)C4)ncc3C(F)(F)F)c[nH]c12 [Compound 83]
< 20 nM	> 50000 nM	< 20 nM	> 50000 nM	–	CC(C)(CO)Nc1ncc(C(F)(F)F)c(-c2c[nH]c3c(P(C)(C)=O)cccc23)n1 [Compound 85, (3-(2-((1-hydroxy-2-methylpropan-2-yl)amino)-5-(trifluoromethyl)pyrimidin-4-yl)-1H-indole-7-yl)dimethylphosphine oxide]

Source: US20240124504A1, “AROMATIC HETEROCYCLIC COMPOUND, AND PHARMACEUTICAL COMPOSITION AND APPLICATION THEREOF” (GT APEIRON THERAPEUTICS LIMITED, priority 2020, published 2024)
